Measured values reported in publication PMC8069832, “New Amides and Phosphoramidates Containing Selenium: Studies on Their Cytotoxicity and Antioxidant Activities in Breast Cancer” (Antioxidants, 2021).
Where two headings read alike, the source gives them in different places.

Columns and labels:
MCF-7 [1] = assay: Western blot of autophagy and apoptosis markers; assay type: cell-based, human; settings: for Beclin-1 and LC3B levels / Phosphorylation of AMPK and JNK / SQSTM1/p62 (autophagic flux): I.1f 80 µM 48 h, I.2f 30 µM 24 h
PC-3 = assay: cells; assay type: cell-based; settings: Homo sapiens; for LC50: read-out: LC50 PC-3; for GI50: read-out: GI50 PC-3; for IC (TGI): read-out: TGI PC-3
Method in brief: (§1)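 MTT cytotoxicity: 1 × 10^4 cells/well in RPMI + 10% FBS exposed to increasing compound concentrations for 48 h at 37 °C, 5% CO2, then MTT for 4 h and formazan dissolved in DMSO. Initial screen at 50 and 10 µM; at least 3 independent experiments in quadruplicate, SEM reported.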

HTB-54 = assay: cells; assay type: cell-based; settings: Homo sapiens; for CC50: read-out: LC50 HTB54; for GI50: read-out: GI50 HTB54; for IC (TGI): read-out: TGI HTB54
Method in brief: as §1

HT-29 = assay: cells; settings: Homo sapiens, HT-29, 48 h; for activity at 10 µM: read-out: Cell growth (%) HT-29; for GI50: read-out: GI50 HT-29; for CC50: read-out: LC50 HT-29; for IC (TGI): read-out: TGI HT-29
[2] = DPPH radical scavenging assay; settings: 0.03 mg/mL, after 30 min
Procedure: The DPPH (1,1-diphenyl-2-picrylhydrazyl radical) assay measures the hydrogen donation ability of the antioxidant to convert the stable DPPH free radical into 1,1-diphenyl-2-(2,4,6-trinitrophenyl)-hydrazine. After radical reaction with the compounds, a decrease in the absorbance was detected at 517 nm, which is accompanied by a change of color from violet to light-yellow. The target compounds were dissolved in methanol to make 1 mg/mL stock solutions, which were diluted to five concentrations as test samples. Ascorbic acid was used as a standard, and the experiment was carried out on 96-well plates. The DPPH solution was prepared at a 100 µM concentration. For each test, 100 µL of DPPH solution was added to 100 µL of methanolic solution containing the tested derivatives, and the absorbance was determined at different time points. All the measurements were carried out in triplicate. Results were expressed as the percentage of the radical scavenged, calculated using the following formula:(1) % DPPH radical scavenging=Acontrol − Asample/Acontrol × 100 where Acontrol refers to the absorbance of the negative control, and Asample refers to the absorbance of the tested compounds. Results are expressed as a percentage of DPPH radical scavenged ± SEM.
. Ascorbic acid and Trolox were used as radical scavenger gold standards. […]. No correlation was found for either structure–radical scavenging activity or antitumor–radical scavenging activity, except for compound I.2f, one of the selected cytotoxic agents. To further confirm this antioxidant activity, three compounds (I.1e, I.1g and I.2i) were also evaluated as DPPH radical scavengers at a lower concentration of 0.003 mg/mL (Figure 3B).

MCF-7 [3] = settings: read-out: GI50 MCF-7; 48 h, average ± SEM

| SMILES | Beclin-1 and LC3B levels (MCF-7 [1]) | Phosphorylation of AMPK and JNK (MCF-7 [1]) | SQSTM1/p62 (autophagic flux) (MCF-7 [1]) | LC50 (PC-3; PC-3, 48 h) [µM] | GI50 (PC-3; PC-3, 48 h, average ± SEM) [µM] | IC (TGI) (PC-3; PC-3, 48 h, average ± SEM) [µM] | CC50 (HTB-54; HTB-54, 48 h) [µM] | GI50 (HTB-54; HTB-54, 48 h, average ± SEM) [µM] | IC (TGI) (HTB-54; HTB-54, 48 h, average ± SEM) [µM] | activity at 10 µM (HT-29) [%] | GI50 (HT-29) [µM] | CC50 (HT-29) [µM] | IC (TGI) (HT-29) [µM] | GI50 (MCF-7 [3]) [µM] | other results |
| --- | --- | --- | --- | --- | --- | --- | --- | --- | --- | --- | --- | --- | --- | --- | --- |
| O=C(Nc1ccc([Se][Se]c2ccc(NC(=O)c3ccc(C(F)(F)F)cc3)cc2)cc1)c1ccc(C(F)(F)F)cc1 [I.1f] | increased levels | induced JNK and AMPK phosphorylation | downregulated | 65 ± 0.6 | 1.2 ± 1.5 | 32.9 ± 3.1 | 75.4 ± 1.7 | 25.1 ± 3.1 | 50.2 ± 2.4 | -18.4 | 0.1 | > 100 | 5.7 ± 0.9 | – | – |
| N#C[Se]c1ccc(NC(=O)c2ccc(C(F)(F)F)cc2)cc1 [I.2f] | increased levels | induced JNK and AMPK phosphorylation | downregulated | – | 28.5 ± 0.7 | 53.1 ± 0.6 | – | 29.8 ± 1.5 | 57.1 ± 3.3 | 26.7 | 0.6 ± 0.4 | > 100 | 79.2 ± 0.3 | 0.9 | DPPH activity inhibition [2]: greater than 35%; LC50 (PC-3; PC-3, 48 h, average ± SEM): 77.7 ± 0.6 µM; CC50 (HTB-54; HTB-54, 48 h, average ± SEM): 84.4 ± 5.2 µM |
| CCOP(=O)(Nc1ccc([Se]C#N)cc1)OCC [II.2d] | – | – | – | 99.9 ± 9.5 | – | – | 4.8 ± 0.2 | – | – | -63.4 | 5 ± 0.8 | 9.5 ± 0.4 | 7.3 ± 0.2 | 0.9 ± 0.1 | BAX, p21, p53 levels (MCF-7 [1]): Significantly increased levels; Bcl-2 levels (MCF-7 [1]): decreased levels; GI50 (PC-3; PC-3, 48 h): 1.9 ± 0.1 µM; IC (TGI) (PC-3; PC-3, 48 h): 4.4 ± 0.1 µM; GI50 (HTB-54; HTB-54, 48 h): 1.6 ± 0.4 µM; IC (TGI) (HTB-54; HTB-54, 48 h): 3.2 ± 0.3 µM |
